In patent US8617819B2, “Polymers for analyte detection” (Massachusetts Institute of Technology, priority 2004, dated 2013):

How the values were obtained:
sheep erythrocytes = assay: hemagglutination inhibition of sheep erythrocytes; format: cell-based
[1] = system: mannose binding (wild type) E. coli strain; assay: fluorescent staining / clustering of mannose binding (wild type) E. coli; format: cell-based; conditions: 30 minutes, OD600 1.0, washed twice with PBS
Description: (§1) Two bacterial strains that differed only in their mannose binding properties were used to assess whether the mannosylated PPE 22a could fluorescently stain E. coli. In addition to a strain that binds to mannose, a second strain that is mutated in its mannose binding protein (FimH) to abolish mannose binding was used. The non-functionalized polymer 21, the mannosylated polymer 22a, and 2′-fluorescein aminoethyl mannoside were individually incubated with these bacterial strains. After incubating a 1 ml bacterial suspension at an OD600 of 1.0 with the appropriate polymer or dye labeled mannose for 30 minutes, the suspensions were centrifuged to pellet the cells. The supernatant solution containing unbound polymer or dye labeled mannose was discarded and the cells were washed twice with phosphate buffered saline (PBS, pH 7.2). The bacteria were then resuspended in PBS. […]
(§2) Binding of mannosylated polymer to bacteria was imaged using laser scanning confocal microscopy and fluorescence microscopy. […]
(§3) FIGS. 8A-8B illustrate laser scanning confocal microscopy images. […] FIG. 8D is a conventional fluorescence spectra of polymer 22a in PBS (solid line) and normalized fluorescence spectra of a bacterial cluster obtained using confocal microscopy (dotted line).

[2] = system: E. coli strain mutated in its mannose binding protein (FimH); assay: fluorescent staining / clustering of FimH mutant (non-mannose binding) E. coli; format: cell-based; conditions: 30 minutes, OD600 1.0, washed twice with PBS
Description: as §1, §2, §3

[3] = thin film (solid phase) energy transfer / dye association assay; format: binding; conditions: for association of free dye with polymer thin films: polymers 3 and 4, thin films
Description: Thin film experiments with polymers 3 and 4 were also conducted in this example. Incubation with the dye-labeled streptavidin was performed in the presence of Triton X-100, a non-ionic detergent, to diminish non-specific binding. […] The spectra was scaled to 454 nm.
To perform energy transfer assays in solid phase, the following general protocol was used. The microscope coverslips were pretreated in 1,1,1,3,3,3-hexamethyldisilazane. The polymer solutions at 1 mg/ml in chloroform were spin-cast onto microscope coverslips at a spin rate of 3000 rpm for 1 minute. The coverslips were put under vacuum for 2 h, then were incubated in a solution of dye labeled streptavidin or dye for 1 h. The coverslips were then washed with deionized water, blotted dry and dried under vacuum for a minimum of 5 h. The excitation wavelength at 400 nm was chosen, and the emission spectrum was taken from 415 nm-700 nm.

[4] = Stern-Volmer quenching of polymer 1 by streptavidin-free dyes; format: binding; conditions: free dye added to polymer 1, 50 mM Tris buffer pH 7.4
Description: This mechanism generally requires fairly close proximity between the donor and acceptor chromophores. To study these interactions, the Stern-Volmer (KSV) quenching constants were determined from fluorescence emission and lifetime measurements in 50 mM Tris buffer at pH 7.4. Upon the addition of the streptavidin-free fluorescent dyes (fluorescein, RhB, and sulforhodamine 101, the Texas Red™ parent dye) to polymer 1, the apparent KSV values were determined to be 26,300 M^−1, 91,800 M^−1 and 97,900 M^−1, respectively. […] The dyes therefore may have an inherent affinity for the conjugated polymer backbone. A more planar conformation and greater hydrophobic character for Texas Red™, compared to RhB and fluorescein, may permit better stacking and orbital interaction with the CP backbone, allowing for greater DET. In the case of dye-labeled streptavidin, biological recognition first may bring the dyes into closer proximity with the polymer. Conformational and hydrophobic characteristics of the dyes then may tailor the extent of orbital mixing with the polymer: the flatter Texas Red™ may interact more intimately with the planar conjugated polymer backbone then the other dyes. This may favor DET and can explain the better ET that was observed, even at decreased spectral overlap between the CP donor and dye acceptor.

Compound	INHIBITING DOSE (sheep erythrocytes) [M]	association of free dye with polymer thin films [3]	apparent Stern-Volmer quenching constant KSV [4]	also measured
2′-Fluorescein aminoethyl mannoside	0.01	–	–	binding / fluorescent labelling of E. coli after incubation, pelleting and washing [1]: Neither polymer 21 nor the 2′-fluorescein aminoethyl mannoside appeared to bind either E. coli strain; binding / fluorescent labelling of E. coli after incubation, pelleting and washing [2]: Neither polymer 21 nor the 2′-fluorescein aminoethyl mannoside appeared to bind either E. coli strain
NCCOC1O[C@H](CO)[C@@H](O)[C@H](O)[C@@H]1O (stereo partly drawn) [2′-Aminoethyl mannoside]	0.01	–	–	–
CCN(CC)c1ccc2c(-c3ccccc3C(=O)O)c3ccc(=[N+](CC)CC)cc-3oc2c1.[Cl-] [RhB, rhodamine B]	–	associated with both 3 and 4	91,800 M^−1	–
O=S(=O)([O-])c1cc(S(=O)(=O)O)ccc1C1=c2cc3c4c(c2Oc2c1cc1c5c2CCCN5CCC1)CCC[N+]=4CCC3 [sulforhodamine 101]	–	associated with neither	97,900 M^−1	–
RhB-strept: rhodamine B-labeled streptavidin, about 4.6 dyes/protein	–	–	–	thin film ET of dye-labeled streptavidin ([3]; polymers 3 and 4, in the presence of Triton X-100): exhibited better ET than T-red-strept
